The values below come from patent publication US20260008746A1, “CATIONIC LIPID COMPOUND WITH HIGH EFFICIENCY, LOW TOXICITY AND STABLE EXPRESSION, AND COMPOSITION COMPRISNG SAME” (HANGZHOU TIANLONG PHARMACEUTICAL CO., LTD, priority 2023, published 2026).

A short description of series [1]: Determination of particle size and polydispersity index (PDI) of lipid nanoparticles by dynamic light scattering. It counts as physicochemical. Particulars: LNP formulation of named cationic lipid/DSPC/cholesterol/DMG-PEG2000 49:10:39.5:1.5; for Particle size (nm): 90° scattering angle, 25° C. Here is the method:
The cationic lipids listed in Table 1 were dissolved in ethanol with DSPC (AVT (Shanghai) Pharmaceutical Technology Co., Ltd.), cholesterol (AVT (Shanghai) Pharmaceutical Technology Co., Ltd.) and DMG-PEG2000 according to a molar ratio of 49:10:39.5:1.5, respectively, to prepare lipid solution in ethanol. The lipid solution in ethanol was quickly added to citrate buffer (pH=4 to 5) by ethanol injection method, and vortexed for 30 s for later use. eGFP-mRNA (from Shanghai Biohub International Trade Co., Ltd) or Fluc-mRNA (from Shanghai Biohub International Trade Co., Ltd) was diluted in citrate buffer (pH=4 to 5) to give an aqueous mRNA solution. A certain volume of liposome solution and mRNA aqueous solution were used to prepare liposomes at a weight ratio of total lipids to mRNA of 15:1. The mixtures were sonicated at 25° C. for 15 min (with an ultrasonic frequency of 40 kHz and an ultrasonic power of 800 W). The resulting liposomes were diluted to 10 times volume with PBS, and then ultrafiltered with a 300 KDa ultrafiltration tube to remove ethanol. Then the volume was fixed to a certain volume with PBS to give an LNP formulation encapsulating eGFP-mRNA or Fluc-mRNA using cationic lipid/DSPC/cholesterol/DMG-PEG2000 (49:10:39.5:1.5 in molar percentage).
The particle size and polydispersity index (PDI) were determined by dynamic light scattering using Malvern laser particle size analyzer.
10 μL of the liposome solution was weighed, diluted to 1 mL with RNase-free deionized water, and added to the sample pool. Each sample was measured in triplicate. The measurement conditions were: 90° scattering angle, and 25° C.

The subject of series [2] is 293T cells. As to the kind of experiment: Fluorescent detection of Fluc-mRNA (cell transfection efficiency of LNP formulations). The series is classed as cell-based. As to conditions: for Relative light unit (RLU): LNP formulation containing 0.3 μg Fluc-mRNA, 96-well plate, 24 hours; for fluorescence absorption value, times that of HHMA: RLU of named substance / RLU of HHMA; for fluorescence absorption value, times that of Lipofectamine 3000: RLU of named substance / RLU of Lipofectamine 3000; for Ratio relative to SM-102: RLU of named substance / RLU of SM-102; for Fluc-mRNA expression signal intensity, times that of compound 21: RLU of named substance / RLU of compound 21; for fluorescence absorption value, times that of compound 23: RLU of named substance / RLU of compound 23; for difference from SM-102 in Fluc-mRNA fluorescence (GraphPad Prism analysis): statistical comparison with SM-102; for Multiples (YK-101): RLU of YK-101 / RLU of named substance; for Multiples (YK-107): RLU of YK-107 / RLU of named substance; for Multiples (YK-108): RLU of YK-108 / RLU of named substance. Here is the method: (§1) Cell recovery and passage: 293T cells were recovered, cultured in a culture dish, and passaged to the required number of cells.
(§2) Seeding plate: The cells in the culture dish were digested and counted. Cells were spread in a 96-well plate at 10,000 cells per well and in a 12-well plate at 150,000 cells per well. Cells were cultured overnight until the cells adhered to the wall.
Cell recovery and passage: the method was the same as in Example 3.
Seeding plate: the method was the same as in Example 3.
An LNP formulation containing 0.3 μg of Fluc-mRNA (the carrier components of the LNP formulation were cationic lipid, neutral lipid, structured lipid and polymer-conjugated lipid with a molar ratio of 49:10:39.5:1.5, wherein the cationic lipid was listed in Table 1) was added to the cell culture medium of a 96-well plate, and further incubated for 24 hours. The corresponding reagent was added according to the instructions of the Gaussia Luciferase Assay Kit, and the fluorescence expression intensity of each well was detected by an IVIS fluorescence detection system. This test verified the transfection efficiencies of LNP formulations in cells, see Tables 3-6 for specific test results.

The test system of series [3] is 293T cells. As to the kind of experiment: Cell survival rate determination (CCK-8). The series is classed as cell-based. As to conditions: for Cell survival rate (%): LNP formulation containing 1.5 μg Fluc-mRNA, 24 hours, CCK-8, absorbance at 450 nm; for cell survival rate lower than that of YK-101: cell survival rate of YK-101 minus that of named substance; for cell survival rate lower than that of YK-107: cell survival rate of YK-107 minus that of named substance; for cell survival rate lower than that of YK-108: cell survival rate of YK-108 minus that of named substance. Here is the method: as §1, §2
An LNP formulation containing 1.5 μg of Fluc-mRNA (the cater component of the LNP formulation were cationic lipid, neutral lipid, structured lipid and polymer-conjugated lipid with a molar ratio of 49: 10: 39.5: 1.5, wherein the cationic lipid was listed in Table 1) and the formulation of Lipofectamine 3000 were added to the cell culture medium of a 96-well plate, and further cultivated for 24 hours. 10 μL of CCK-8 solution was then added to each well, and the culture plate was incubated in an incubator for 1 hour. The absorbance at 450 nm was measured by a microplate reader.

In another series the test system is BALB/C mice. As to the kind of experiment: In vivo imaging of Fluc-mRNA expression in mice delivered by LNP formulations. As to conditions: for average radiation intensity, 6 h / average radiation intensity, 24 h / average radiation intensity, 48 h / average radiation intensity, 7 d: LNP containing 10 pg Fluc-mRNA, intramuscular, female BALB/C mice. The method, then:
The LNP formulation containing […] Fluc-mRNA was injected intramuscularly into female BALB/C mice aged 4-6 weeks old and weighed 17-19 g, and the mice were intraperitoneally injected with fluorescent imaging substrate at specific time points after administration (6h, 24 h, 48h and 7d), where the mice were allowed to move freely for 5 minutes, and then the average radiation intensity (corresponding to fluorescence expression intensity) of the protein expression of the mRNA carried by the LNP in the mice was detected by the IVIS Spectrum small animal in vivo imaging device. The test results are shown in Tables 11 to 14 and FIGS. 12 to 14.

For `CCCCCCCCCCOC(=O)CCCN(CCCCCC(=O)OCC(CCCCCCCC)CCCCCCCC)CCOCCO` [YK-124, 2-octyldecyl 6-(4-(decyloxy)-4-oxobutyl)(2-(2-hydroxyethoxy-ethyl)amino)hexanoate], in series [1], the “PDI(%)” value is given as 14.7% and the “Particle size (nm)” value was 216 nm. In addition, in the series on 293T cells [2], the “Relative light unit (RLU)” value came to 81596 RLU; the “fluorescence absorption value, times that of HHMA” value amounted to 0.04 times; the “fluorescence absorption value, times that of Lipofectamine 3000” value turned out to be 0.08 times; the “Ratio relative to SM-102” value stood at 0.05. In addition, in the series with 293T cells [2], the “Fluc-mRNA expression signal intensity, times that of compound 21” value (from here on “Fluc-mRNA expression signal intensity”) stood at 0.06 times; the “fluorescence absorption value, times that of compound 23” value is on record as 0.06 times; the “difference from SM-102 in Fluc-mRNA fluorescence (GraphPad Prism analysis)” value (“difference” below) is on record as “significant difference”. In the series on 293T cells [3], the “Cell survival rate (%)” value amounted to 77.56%, the “cell survival rate lower than that of YK-101” value worked out at 12.56%, the “cell survival rate lower than that of YK-107” value worked out at 12.89% and the “cell survival rate lower than that of YK-108” value worked out at 12.30%.
Turning to `CCCCCCCCCCOC(=O)CCCN(CCCCCC(=O)OCC(CCCCCCCC)CCCCCCCC)CCOCCOCCO` [YK-122, 2-octyldecyl 6-(4-(decyloxy)-4-oxobutyl)(2-(2-(2-hydroxyethoxy)ethoxy-ethyl)amino)hexanoate], in series [1], the “PDI(%)” value stood at 7.7% and the “Particle size (nm)” value stood at 205 nm. In the series with 293T cells [2], the “cell transfection efficiency, times that of YK-121” value stood at 3.3 times; the “Relative light unit (RLU)” value turned out to be 1418705 RLU; the “Multiples (YK-101)” value was 14.33; the “Multiples (YK-107)” value turned out to be 15.76. In addition, in the series with 293T cells [2], the “Multiples (YK-108)” value amounted to 17.38; the “fluorescence absorption value, times that of HHMA” value stood at 0.69 times; the “fluorescence absorption value, times that of Lipofectamine 3000” value stood at 1.32 times; the “Ratio relative to SM-102” value was 0.92. Besides, in the series with 293T cells [2], the “Fluc-mRNA expression signal intensity” value amounted to 1.02 times; the “fluorescence absorption value, times that of compound 23” value is on record as 1.10 times; the “difference” value is reported as “no significant difference”. In addition, in the series on 293T cells [3], the “Cell survival rate (%)” value is 79.15%, the “cell survival rate lower than that of YK-101” value is 10.97%, the “cell survival rate lower than that of YK-107” value is 11.30% and the “cell survival rate lower than that of YK-108” value was 10.71%.
Consider `CCCCCCCCCCOC(=O)CCCN(CCCCCC(=O)OCCC(CCCCCC)CCCCCC)CCOCCOCCO` [YK-121, 3-hexylnonyl 6-(4-(decyloxy)-4-oxobutyl)(2-(2-(2-hydroxyethoxy)ethoxy-ethyl)amino)hexanoate], for which, in series [1], the “PDI(%)” value came to 25.1% and the “Particle size (nm)” value is reported as 192 nm. In the series on 293T cells [2], the “Relative light unit (RLU)” value worked out at 427603 RLU; the “Multiples (YK-107)” value is given as 52.29; the “fluorescence absorption value, times that of HHMA” value is 0.21 times; the “fluorescence absorption value, times that of Lipofectamine 3000” value is 0.40 times. In addition, in the series with 293T cells [2], the “Ratio relative to SM-102” value is recorded as 0.28; the “Fluc-mRNA expression signal intensity” value turned out to be 0.31 times; the “fluorescence absorption value, times that of compound 23” value turned out to be 0.33 times; the “difference” value was “significant difference”. Also, in the series with 293T cells [3], the “Cell survival rate (%)” value was found to be 73.11%, the “cell survival rate lower than that of YK-101” value amounted to 17.01%, the “cell survival rate lower than that of YK-107” value was determined as 17.34% and the “cell survival rate lower than that of YK-108” value is on record as 16.75%.
On to `CCCCCCCCCCOC(=O)CCCN(CCO)CCCCCC(=O)OCCC(CCCCCC)CCCCCC` [YK-101, 3-hexylnonyl-6-(4-(decyloxy)-4-oxobutyl)((2-hydroxyethyl)amino)hexanoate], for which, in the series with 293T cells [2], the “Relative light unit (RLU)” value stood at 20335193 RLU, the “Multiples (YK-101)” value was 1.00, the “Multiples (YK-107)” value was determined as 1.10 and the “Multiples (YK-108)” value is recorded as 1.21. Also, the “Ratio relative to SM-102” value in the series with 293T cells [2] amounted to 13.25. Besides, the “Cell survival rate (%)” value in the series with 293T cells [3] is 90.12%. The “average radiation intensity, 6 h” value in the series with BALB/C mice (6 h) is recorded as 1496240. Also, the “average radiation intensity, 24 h” value in the series on BALB/C mice (24 h) is 1056210. Moreover, in the series with BALB/C mice (48 h), the “average radiation intensity, 48 h” value is listed as 185905. In addition, the “average radiation intensity, 7 d” value with BALB/C mice (7 d) worked out at 12165.
Regarding `CCCCCCCCCCOC(=O)CCCN(CCCCCC(=O)OCCC(CCCCCC)CCCCCC)C1CCCC1O` (centres unmarked) [YK-120, 3-hexylnonyl 6-(4-(decyloxy)-4-oxobutyl)((2-hydroxycyclopentyl)amino)hexanoate], in the series with 293T cells [2], the “Relative light unit (RLU)” value worked out at 1403572 RLU, the “Multiples (YK-101)” value was 14.49, the “Multiples (YK-107)” value turned out to be 15.93 and the “Multiples (YK-108)” value came to 17.57. Also, in the series on 293T cells [2], the “fluorescence absorption value, times that of HHMA” value worked out at 0.69 times; the “fluorescence absorption value, times that of Lipofectamine 3000” value turned out to be 1.31 times; the “Ratio relative to SM-102” value turned out to be 0.91; the “Fluc-mRNA expression signal intensity” value is 1.01 times. The “fluorescence absorption value, times that of compound 23” value in the series with 293T cells [2] amounted to 1.09 times. Also, in the series on 293T cells [3], the “Cell survival rate (%)” value amounted to 73.43%, the “cell survival rate lower than that of YK-101” value turned out to be 16.69%, the “cell survival rate lower than that of YK-107” value is listed as 17.02% and the “cell survival rate lower than that of YK-108” value is reported as 16.43%. Moreover, in the series on BALB/C mice (6 h), the “average radiation intensity of YK-101, times that of named substance” value is 2.7 times; the “average radiation intensity of YK-107, times that of named substance” value was 2.9 times; the “average radiation intensity of YK-108, times that of named substance” value worked out at 3.6 times; the “average radiation intensity, 6 h” value was 559000. Moreover, in the series with BALB/C mice (24 h), the “average radiation intensity of YK-101, times that of named substance” value is listed as 11.1 times; the “average radiation intensity of YK-107, times that of named substance” value was determined as 13.7 times; the “average radiation intensity of YK-108, times that of named substance” value was determined as 14.8 times; the “average radiation intensity, 24 h” value stood at 94779. For the same compound, in the series with BALB/C mice (48 h), the “average radiation intensity of YK-101, times that of named substance” value is on record as 8.9 times; the “average radiation intensity of YK-107, times that of named substance” value was determined as 10.9 times; the “average radiation intensity of YK-108, times that of named substance” value was 11.1 times; the “average radiation intensity, 48 h” value was found to be 20832. Moreover, in the series with BALB/C mice (7 d), the “average radiation intensity of YK-101, times that of named substance” value was determined as 2.4 times; the “average radiation intensity of YK-107, times that of named substance” value came to 2.6 times; the “average radiation intensity of YK-108, times that of named substance” value turned out to be 2.8 times; the “average radiation intensity, 7 d” value came to 5052.
